The text below walks through data of PMC11874007, “Switching Roles—Exploring Concentration-Dependent Agonistic versus Antagonistic Behavior of Integrin Ligands” (Journal of Medicinal Chemistry, 2025).

One assay concerns αvβ6+ HN cells. The experiment in a line: Wound scratch cell migration assay, HN cells. Format: cell-based. The conditions noted are these: at either concentration (1 nM, 1 μM). On the procedure: As a biological readout for integrin signaling, we analyzed ligand effects on cell adhesion and migration by wound scratch assays (Figure 10A,B). […] Microscopical images were taken directly after wounding the cell monolayers and then after 9, 24, 48, and 72 h, respectively.
Figure 10 (A) Effect of integrin ligands on cancer cell migration. […] Microscopical measurements of wound gaps were taken directly after setting the wound scratch and then after 9, 24, 48, and 72 h, respectively. Wound scratch assays were repeated at least three times. The extent of wound gap closure [%]/cell coverage was calculated by a python script utilizing Canny’s Edge Detection algorithm as described under Materials and summarized in the corresponding histograms (see also Scheme S5 in the Supporting Information). (B) Adhesion of M21, OV-MZ-6, and HN cells in the presence of the respective integrin targeting ligand at low (1 nM) and high (1 μM) concentrations. […]
The assays were performed according to a modified protocol as previously published.[94] […] The smoothened images were then filtered by a Sobel kernel[98] and the magnitude and direction of the intensity gradient of the images calculated. […] The resulting images were then segmented and binarized by use of a grid filter and analyzed with respect to cell-covered area relative to the start image of each series.

In assay [1] the test system is FAK, p-FAK, p44/42erk-1/2 in αvβ6+ HN cells. Kind of assay: Western blot of FAK and p44/42erk-1/2 expression and activation, HN cells. Format: cell-based. The method, then: Since agonistic ligand performance requires integrin activation and signaling, by Western blot analysis, we studied whether the different ligands alter the expression levels and activation states of FAK and p44/42^(erk-1/2). For this, the respective target integrin-expressing tumor cell types were incubated with the corresponding subtype-selective ligand at a concentration of 1 μM for 24 h (Figure 8). […] Signal intensities of FAK and p44/42^(erk-1/2) expression and activation (p-FAK and p-p44/42^(erk-1/2)) on Western blots were evaluated by densitometry. Data are depicted as GAPDH-normalized fluorescence signal intensities as n-fold, by setting values obtained for the respective untreated cells to “1”. […] MAPK p44/42^(erk-1/2) expression was approximately 2.2-fold augmented, p44/42^(erk-1/2) by approximately 2.5-fold. It also raised activation of p-FAK and p-p44/42^(erk-1/2) by approximately 2.2-fold and 3.1-fold, respectively, in α5β1+ OV-MZ-6 cells. […] Additionally, it raised FAK (approximately 1.7-fold) and p-p44/42^(erk-1/2) (approximately 2.4-fold) in α5β1+ OV-MZ-6 cells.
Figure 8 Effects of ligands on cellular expression and activation of integrin-related signaling molecules FAK and p44/42^(erk-1/2). […] Signal intensities for FAK and p-FAK, respectively, were evaluated by use of the Bio-Rad Imager Gel Doc XR+ and a ChemiDoc XRS+ Systems and the software Image Lab. Shown are typical representative Western blot images and the corresponding histograms depicting GAPDH-normalized signal intensities as n-fold by setting the values obtained for untreated cells to “1” (drawn as black line). For each cell line, cutouts of identical gels are depicted.
In order to capture early and transient changes in signaling activation following ligand treatment, we next reduced the observation periods to 5, 30, or 60 min and assessed FAK expression and activation. […] Depicted are typical Western blot images and the corresponding densitometrical evaluations of GAPDH-normalized signal intensities as n-fold, by setting that of the respective untreated cell type to “1” (Figure 9). […]
(Immunoblotting shows a protein as a band on a membrane.)

The subject of the next assay is HN cells. The experiment in a line: Cell adhesion in the presence of ligand, HN cells. Format: cell-based. As to conditions: both concentrations (1 nM, 1 μM), 48 h. The method, then:
Figure 10 (A) Effect of integrin ligands on cancer cell migration. […] Microscopical measurements of wound gaps were taken directly after setting the wound scratch and then after 9, 24, 48, and 72 h, respectively. Wound scratch assays were repeated at least three times. The extent of wound gap closure [%]/cell coverage was calculated by a python script utilizing Canny’s Edge Detection algorithm as described under Materials and summarized in the corresponding histograms (see also Scheme S5 in the Supporting Information). (B) Adhesion of M21, OV-MZ-6, and HN cells in the presence of the respective integrin targeting ligand at low (1 nM) and high (1 μM) concentrations. […] Depicted are typical microscopical images of the respective cell monolayers.

In the next assay the target is T1, human αvβ3-integrin (Homo sapiens, UniProt P05106+P06756).
T1 construct: purchased R&D 3050-AV-050
The conditions noted are these: previously published values; cited from earlier work.

T1 sequence (P06756 31-992 limits assumed): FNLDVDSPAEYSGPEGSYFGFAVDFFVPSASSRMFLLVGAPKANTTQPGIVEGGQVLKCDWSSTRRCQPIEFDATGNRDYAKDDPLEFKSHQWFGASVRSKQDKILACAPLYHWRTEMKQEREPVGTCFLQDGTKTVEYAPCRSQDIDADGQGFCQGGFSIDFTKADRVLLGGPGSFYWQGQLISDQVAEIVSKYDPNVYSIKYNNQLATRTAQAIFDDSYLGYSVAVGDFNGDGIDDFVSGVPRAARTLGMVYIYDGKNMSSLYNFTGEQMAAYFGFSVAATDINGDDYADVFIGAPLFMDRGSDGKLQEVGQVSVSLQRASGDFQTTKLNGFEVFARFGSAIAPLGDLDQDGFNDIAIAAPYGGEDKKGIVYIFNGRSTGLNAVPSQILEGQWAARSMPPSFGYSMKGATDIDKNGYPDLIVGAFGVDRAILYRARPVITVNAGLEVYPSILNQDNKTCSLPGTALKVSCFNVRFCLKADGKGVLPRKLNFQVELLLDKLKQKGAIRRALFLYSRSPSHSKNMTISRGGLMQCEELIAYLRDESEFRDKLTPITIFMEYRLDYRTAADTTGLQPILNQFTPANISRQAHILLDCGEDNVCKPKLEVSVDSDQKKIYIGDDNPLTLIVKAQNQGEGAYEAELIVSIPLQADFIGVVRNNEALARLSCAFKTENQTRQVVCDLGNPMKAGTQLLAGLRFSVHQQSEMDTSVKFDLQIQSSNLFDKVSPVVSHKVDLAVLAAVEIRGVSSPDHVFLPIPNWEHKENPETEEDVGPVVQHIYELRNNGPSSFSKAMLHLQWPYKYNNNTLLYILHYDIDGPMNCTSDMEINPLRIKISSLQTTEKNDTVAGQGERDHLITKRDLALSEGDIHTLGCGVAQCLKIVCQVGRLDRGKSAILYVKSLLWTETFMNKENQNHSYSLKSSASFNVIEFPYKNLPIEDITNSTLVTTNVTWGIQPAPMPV
T1 sequence (P05106 27-718 limits assumed): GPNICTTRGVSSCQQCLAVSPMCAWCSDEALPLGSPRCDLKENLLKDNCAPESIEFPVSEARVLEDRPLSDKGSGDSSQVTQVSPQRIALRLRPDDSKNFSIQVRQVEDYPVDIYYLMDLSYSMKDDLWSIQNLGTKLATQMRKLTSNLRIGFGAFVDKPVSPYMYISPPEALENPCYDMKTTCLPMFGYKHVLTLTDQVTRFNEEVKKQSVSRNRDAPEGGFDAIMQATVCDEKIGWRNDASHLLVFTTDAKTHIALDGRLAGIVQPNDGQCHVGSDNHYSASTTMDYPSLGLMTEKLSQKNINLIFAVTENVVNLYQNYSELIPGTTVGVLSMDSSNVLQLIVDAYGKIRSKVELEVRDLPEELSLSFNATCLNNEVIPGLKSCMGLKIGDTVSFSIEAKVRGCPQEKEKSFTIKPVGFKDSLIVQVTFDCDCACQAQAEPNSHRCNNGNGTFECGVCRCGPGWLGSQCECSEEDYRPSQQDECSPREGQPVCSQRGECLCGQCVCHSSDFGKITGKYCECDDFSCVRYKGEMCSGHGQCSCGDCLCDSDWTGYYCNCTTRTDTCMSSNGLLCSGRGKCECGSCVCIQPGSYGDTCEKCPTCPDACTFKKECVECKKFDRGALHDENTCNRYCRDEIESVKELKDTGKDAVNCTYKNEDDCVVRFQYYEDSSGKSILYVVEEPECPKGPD

The term IC50 denotes the point on the concentration scale where inhibition reaches its midpoint. For the substance c(FRGDLAFp(NMe)K) [L3], the “Effect on cell migration” value with αvβ6+ HN cells is “neither antagonistic nor agonistic effects”. In assay [1] (1 μM, 24 h, in either cell type), the “Modulation of signaling molecules (FAK, p44/42erk-1/2)” value was “not effective in modulating signaling molecules”. Besides, the “p-FAK, elevated levels within 30 min” value in assay [1] (HN cells, 1 nM) is “approximately five”. Also, the “FAK expression versus untreated cells” value in assay [1] (HN cells, both concentrations (1 nM, 1 μM), within 60 min) was “slight increase”. Besides, the Adhesive phenotype result with HN cells is recorded as “not changed”. For the same substance, the half-maximal inhibitory concentration (IC50) at human αvβ3-integrin is greater than 1000 nM.
